Measurements taken from patent US11136329B2, “JAK inhibitors” (Vimalan Biosciences, Inc., priority 2019, dated 2021).

What was measured:
Format in all cases: biochemical
JAK1 = JAK1 (Homo sapiens (Human), UniProt P23458); assay: JAK/TYK2 assay (Kinase Glo luminescence), JAK1; details: 7.5 nM enzyme, 2 uM ATP, 30 uM IRS-1, 1 hr
Procedure: (§1) 10 mM test compound stock or 1 mM control compound stock (tofocitinib, ruxolitinib or staurosporine) in DMSO was diluted to 0.4 mM in DMSO. A 3-fold series dilution was then performed in DMSO to generate 10 different compound concentrations. The assay was carried out in 384-well white plate. 0.5 uL of 40× compound DMSO solution at different concentrations was mixed with 10 uL 2× enzyme prepared in reaction buffer (20 mM HEPES, 10 mM MgCl2, 0.01% Tween, 1 mM DTT, pH 7.5). 10 uL 2× substrate mixture prepared in reaction buffer was then added to start the reaction. A short spin was done to settle down all solutions to the bottom of the plate. Final concentrations of test compound in the reaction mixture were 10000, 3333, 1111, 370, 123, 41.2, 13.7, 4.57, 1.52and 0.51 nM. Concentrations of control compound were ten times less. Enzymatic reaction was conducted at 25° C. for 1-2 hours. 10 uL of Kinase Glo Reagents was added to stop the reaction and generate the luminescent signal which was measured using Envision. Luminescence signal was inversely related to kinase activity. […] The mixture without any compound was the positive control.

TYK2 = TYK2 (Homo sapiens (Human), UniProt P29597); assay: JAK/TYK2 assay (Kinase Glo luminescence), TYK2; details: 9 nM enzyme, 2 uM ATP, 30 uM IRS-1, 1 hr
Procedure: as §1

JAK2 = JAK2 (Homo sapiens (Human), UniProt O60674); assay: JAK/TYK2 assay (Kinase Glo luminescence), JAK2; details: 0.8 nM enzyme, 2 uM ATP, 4 uM pEY, 1 hr
Procedure: as §1

JAK3 = JAK3 (Homo sapiens (Human), UniProt P52333); assay: JAK/TYK2 assay (Kinase Glo luminescence), JAK3; details: 1.5 nM enzyme, 2 uM ATP, 4 uM pEY, 1 hr
Procedure: as §1

Measured: IC50

TYK2, sequence (P29597 whole entry, species assumed): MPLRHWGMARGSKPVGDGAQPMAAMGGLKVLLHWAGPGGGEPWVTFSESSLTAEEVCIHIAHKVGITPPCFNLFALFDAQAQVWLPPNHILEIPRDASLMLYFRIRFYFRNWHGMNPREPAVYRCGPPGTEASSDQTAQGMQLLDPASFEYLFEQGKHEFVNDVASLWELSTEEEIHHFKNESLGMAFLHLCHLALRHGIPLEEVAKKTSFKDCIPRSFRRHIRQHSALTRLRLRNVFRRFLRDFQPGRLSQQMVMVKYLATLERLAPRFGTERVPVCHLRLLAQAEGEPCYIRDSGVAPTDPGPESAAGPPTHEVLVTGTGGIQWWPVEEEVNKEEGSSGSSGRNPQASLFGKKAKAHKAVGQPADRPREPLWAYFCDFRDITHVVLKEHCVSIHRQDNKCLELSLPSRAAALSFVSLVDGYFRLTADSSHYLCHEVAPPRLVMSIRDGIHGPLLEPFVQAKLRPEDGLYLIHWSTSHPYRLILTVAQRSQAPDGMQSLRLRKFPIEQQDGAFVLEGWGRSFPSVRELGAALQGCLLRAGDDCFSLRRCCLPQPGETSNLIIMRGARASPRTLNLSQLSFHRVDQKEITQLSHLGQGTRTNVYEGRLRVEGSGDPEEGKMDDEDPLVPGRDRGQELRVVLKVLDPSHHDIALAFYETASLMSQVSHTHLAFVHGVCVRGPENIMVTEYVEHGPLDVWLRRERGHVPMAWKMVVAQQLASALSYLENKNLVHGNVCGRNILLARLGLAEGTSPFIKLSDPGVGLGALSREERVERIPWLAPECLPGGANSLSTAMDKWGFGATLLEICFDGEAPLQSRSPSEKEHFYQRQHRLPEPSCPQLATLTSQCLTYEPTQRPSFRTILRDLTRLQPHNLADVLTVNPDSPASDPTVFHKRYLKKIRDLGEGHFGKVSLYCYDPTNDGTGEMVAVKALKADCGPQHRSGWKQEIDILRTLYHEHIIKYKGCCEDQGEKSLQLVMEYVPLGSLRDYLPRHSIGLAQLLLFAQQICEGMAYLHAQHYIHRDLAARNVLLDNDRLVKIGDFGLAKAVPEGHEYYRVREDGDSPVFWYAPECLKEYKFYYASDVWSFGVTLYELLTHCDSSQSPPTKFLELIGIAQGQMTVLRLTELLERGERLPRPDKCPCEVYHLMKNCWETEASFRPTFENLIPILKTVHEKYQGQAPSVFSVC
JAK2, sequence (O60674 whole entry, species assumed): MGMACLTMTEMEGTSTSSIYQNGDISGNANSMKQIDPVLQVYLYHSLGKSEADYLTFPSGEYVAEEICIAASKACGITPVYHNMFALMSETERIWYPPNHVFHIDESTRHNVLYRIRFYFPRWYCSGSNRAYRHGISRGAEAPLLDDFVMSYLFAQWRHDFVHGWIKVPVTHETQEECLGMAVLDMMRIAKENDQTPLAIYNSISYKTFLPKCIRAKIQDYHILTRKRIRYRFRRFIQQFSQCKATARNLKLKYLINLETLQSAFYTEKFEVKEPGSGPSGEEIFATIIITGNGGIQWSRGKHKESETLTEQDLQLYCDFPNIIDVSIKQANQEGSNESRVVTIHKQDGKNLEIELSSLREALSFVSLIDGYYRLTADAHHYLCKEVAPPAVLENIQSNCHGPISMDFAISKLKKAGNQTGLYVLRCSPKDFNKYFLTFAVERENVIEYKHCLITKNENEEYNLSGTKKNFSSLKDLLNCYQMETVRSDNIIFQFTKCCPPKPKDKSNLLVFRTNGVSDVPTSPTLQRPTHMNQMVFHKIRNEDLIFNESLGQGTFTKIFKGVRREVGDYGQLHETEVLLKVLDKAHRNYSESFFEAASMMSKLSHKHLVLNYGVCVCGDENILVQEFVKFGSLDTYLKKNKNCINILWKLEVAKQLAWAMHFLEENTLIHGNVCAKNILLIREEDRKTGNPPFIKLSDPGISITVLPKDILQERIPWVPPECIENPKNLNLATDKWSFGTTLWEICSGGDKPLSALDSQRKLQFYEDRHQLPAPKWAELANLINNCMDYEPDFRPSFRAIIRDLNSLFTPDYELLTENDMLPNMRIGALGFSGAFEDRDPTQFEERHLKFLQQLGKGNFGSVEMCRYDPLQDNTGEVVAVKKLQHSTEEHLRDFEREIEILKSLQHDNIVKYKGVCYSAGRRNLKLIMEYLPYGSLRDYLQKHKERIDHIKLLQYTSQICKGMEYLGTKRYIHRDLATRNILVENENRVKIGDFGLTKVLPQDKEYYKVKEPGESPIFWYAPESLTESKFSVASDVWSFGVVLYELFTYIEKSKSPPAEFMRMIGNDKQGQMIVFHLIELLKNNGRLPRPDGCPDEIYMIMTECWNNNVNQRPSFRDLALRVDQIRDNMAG
JAK1, sequence (P23458 whole entry, species assumed): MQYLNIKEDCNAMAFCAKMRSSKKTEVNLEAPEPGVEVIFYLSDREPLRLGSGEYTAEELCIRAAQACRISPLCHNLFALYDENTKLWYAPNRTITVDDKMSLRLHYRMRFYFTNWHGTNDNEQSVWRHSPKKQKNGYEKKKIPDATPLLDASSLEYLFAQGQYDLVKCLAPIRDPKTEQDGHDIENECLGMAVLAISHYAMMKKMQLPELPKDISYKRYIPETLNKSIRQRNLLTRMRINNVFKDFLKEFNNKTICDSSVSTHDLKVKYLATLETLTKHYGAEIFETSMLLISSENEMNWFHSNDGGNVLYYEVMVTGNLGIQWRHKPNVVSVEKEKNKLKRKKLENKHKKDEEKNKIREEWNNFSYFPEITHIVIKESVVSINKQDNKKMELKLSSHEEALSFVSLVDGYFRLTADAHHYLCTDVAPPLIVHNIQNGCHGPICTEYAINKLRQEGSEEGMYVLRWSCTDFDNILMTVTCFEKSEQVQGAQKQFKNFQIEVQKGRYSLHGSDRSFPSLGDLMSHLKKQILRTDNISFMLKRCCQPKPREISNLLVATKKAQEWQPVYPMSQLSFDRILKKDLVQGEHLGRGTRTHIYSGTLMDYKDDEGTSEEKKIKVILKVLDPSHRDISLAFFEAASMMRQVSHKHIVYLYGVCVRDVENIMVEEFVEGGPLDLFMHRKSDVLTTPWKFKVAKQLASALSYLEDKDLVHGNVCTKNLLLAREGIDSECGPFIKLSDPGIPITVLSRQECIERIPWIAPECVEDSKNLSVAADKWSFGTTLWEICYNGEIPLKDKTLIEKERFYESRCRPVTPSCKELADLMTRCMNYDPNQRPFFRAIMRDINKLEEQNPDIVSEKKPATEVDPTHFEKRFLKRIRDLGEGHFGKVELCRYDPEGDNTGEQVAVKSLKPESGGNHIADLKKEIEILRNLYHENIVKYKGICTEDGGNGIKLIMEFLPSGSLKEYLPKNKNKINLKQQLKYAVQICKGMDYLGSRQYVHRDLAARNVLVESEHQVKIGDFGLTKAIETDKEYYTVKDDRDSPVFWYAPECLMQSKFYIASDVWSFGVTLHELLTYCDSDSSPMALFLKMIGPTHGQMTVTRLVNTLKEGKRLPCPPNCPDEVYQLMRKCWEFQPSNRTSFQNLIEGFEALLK
JAK3, sequence (P52333 whole entry, species assumed): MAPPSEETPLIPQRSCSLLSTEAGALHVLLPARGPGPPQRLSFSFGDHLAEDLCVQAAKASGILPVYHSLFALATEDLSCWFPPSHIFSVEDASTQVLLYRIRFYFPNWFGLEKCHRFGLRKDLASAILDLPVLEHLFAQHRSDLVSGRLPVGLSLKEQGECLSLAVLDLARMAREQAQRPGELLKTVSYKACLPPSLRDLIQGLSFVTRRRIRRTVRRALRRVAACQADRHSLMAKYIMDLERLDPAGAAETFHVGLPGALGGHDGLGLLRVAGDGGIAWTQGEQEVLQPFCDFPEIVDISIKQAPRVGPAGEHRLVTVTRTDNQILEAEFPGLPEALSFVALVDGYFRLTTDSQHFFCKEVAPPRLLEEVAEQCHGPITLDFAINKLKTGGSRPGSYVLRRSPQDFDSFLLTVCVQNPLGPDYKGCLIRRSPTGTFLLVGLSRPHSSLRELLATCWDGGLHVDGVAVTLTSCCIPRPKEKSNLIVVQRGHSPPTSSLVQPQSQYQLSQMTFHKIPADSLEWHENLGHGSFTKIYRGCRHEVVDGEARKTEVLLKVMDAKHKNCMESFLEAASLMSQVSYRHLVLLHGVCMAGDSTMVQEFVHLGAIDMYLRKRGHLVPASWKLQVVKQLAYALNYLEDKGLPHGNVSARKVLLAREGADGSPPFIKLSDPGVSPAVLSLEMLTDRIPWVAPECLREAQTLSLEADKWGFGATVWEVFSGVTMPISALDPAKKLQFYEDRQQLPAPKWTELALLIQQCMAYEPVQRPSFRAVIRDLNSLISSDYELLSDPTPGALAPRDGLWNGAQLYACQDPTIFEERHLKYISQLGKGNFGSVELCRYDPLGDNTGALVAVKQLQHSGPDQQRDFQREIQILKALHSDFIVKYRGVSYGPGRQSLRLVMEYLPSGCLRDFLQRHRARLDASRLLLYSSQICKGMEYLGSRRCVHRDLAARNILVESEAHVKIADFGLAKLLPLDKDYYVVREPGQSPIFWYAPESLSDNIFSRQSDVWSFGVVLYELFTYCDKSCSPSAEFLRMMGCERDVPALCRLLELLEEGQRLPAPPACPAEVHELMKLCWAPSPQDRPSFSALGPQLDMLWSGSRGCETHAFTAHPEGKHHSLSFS

CCC(CC)Cn1ccc2cnc(Nc3cnn(C4CCOC4=O)c3)nc21 (stereo not shown) [Compound 142, 3-(4-((7-(2-ethylbutyl)-7H-pyrrolo[2,3-d]pyrimidin-2-yl)amino)-1H-pyrazol-1-yl)dihydrofuran-2(3H)-one]
< 100 nM: all assays above

O=C(O)Cn1cc(Nc2ncc3ccn(Cc4ccsc4)c3n2)cn1 [Compound 11, 2-(4-((7-(thiophen-3-ylmethyl)-7H-pyrrolo[2,3-d]pyrimidin-2-yl)amino)-1H-pyrazol-1-yl)acetic acid]
100 to 1000 nM: JAK1
< 100 nM: all other assays above

CCC(CC)Cn1ccc2cnc(Nc3cnn(CC(=O)OC(C)C)c3)nc21 [Compound 93, isopropyl 2-(4-((7-(2-ethylbutyl)-7H-pyrrolo[2,3-d]pyrimidin-2-yl)amino)-1H-pyrazol-1-yl)acetate]
< 100 nM: all assays above

CC(C)C(Cn1ccc2cnc(Nc3cnn(CC(=O)OCCO)c3)nc21)C(C)C [Compound 88, 2-hydroxyethyl 2-(4-((7-(2-isopropyl-3-methylbutyl)-7H-pyrrolo[2,3-d]pyrimidin-2-yl)amino)-1H-pyrazol-1-yl)acetate]
< 100 nM: all assays above

CCOC(=O)Cn1cc(Nc2ncc3ccn(C[C@@H]4C[C@@H]5C[C@@H]5C4)c3n2)cn1 [Compound 48, ethyl 2-(4-((7-(((1R,3r,5S)-bicyclo[3.1.0]hexan-3-yl)methyl)-7H-pyrrolo[2,3-d]pyrimidin-2-yl)amino)-1H-pyrazol-1-yl)acetate]
< 100 nM: all assays above

CCOC(=O)Cn1cc(Nc2ncc3ccn(CC4CC5CCC4C5)c3n2)cn1 (stereo not shown) [Compound 40, ethyl 2-(4-((7-(bicyclo[2.2.1]heptan-2-ylmethyl)-7H-pyrrolo[2,3-d]pyrimidin-2-yl)amino)-1H-pyrazol-1-yl)acetate]
< 100 nM: all assays above

CC(C)OC(=O)Cn1cc(Nc2ncc3ccn(C[C@@H](CCO)C(C)C)c3n2)cn1 [Compound 97, isopropyl (S)-2-(4-((7-(4-hydroxy-2-isopropylbutyl)-7H-pyrrolo[2,3-d]pyrimidin-2-yl)amino)-1H-pyrazol-1-yl)acetate]
< 100 nM: all assays above

CC[C@H](Cn1ccc2cnc(Nc3cnn(C(CC(C)(C)O)C(=O)O)c3)nc21)C(C)C (stereo partly drawn) [Compound 147, 2-(4-((7-((S)-2-ethyl-3-methylbutyl)-7H-pyrrolo[2,3-d]pyrimidin-2-yl)amino)-1H-pyrazol-1-yl)-4-hydroxy-4-methylpentanoic acid]
< 100 nM: all assays above

CC#CCn1ccc2cnc(Nc3cnn(CC(=O)OCC)c3)nc21 [Compound 23, ethyl 2-(4-((7-(but-2-yn-1-yl)-7H-pyrrolo[2,3-d]pyrimidin-2-yl)amino)-1H-pyrazol-1-yl)acetate]
< 100 nM: JAK3
100 to 1000 nM: all other assays above

CCOC(=O)Cn1cc(Nc2ncc3ccn(CC4CCCCC4)c3n2)cn1 [Compound 13, ethyl 2-(4-((7-(cyclohexylmethyl)-7H-pyrrolo[2,3-d]pyrimidin-2-yl)amino)-1H-pyrazol-1-yl)acetate]
< 100 nM: all assays above

CCOC(=O)Cn1cc(Nc2ncc3ccn(C[C@@H]4CCC[C@@H](OC)C4)c3n2)cn1 [Compound 131, ethyl 2-(4-((7-(((1R,3R)-3-methoxycyclohexyl)methyl)-7H-pyrrolo[2,3-d]pyrimidin-2-yl)amino)-1H-pyrazol-1-yl)acetate]
100 to 1000 nM: JAK1
< 100 nM: all other assays above

CC[C@H](Cn1ccc2cnc(Nc3cnn(CC(=O)O[C@@H]4CCN(C)C4)c3)nc21)C(C)C [Compound 139, (R)-1-methylpyrrolidin-3-yl 2-(4-((7-((S)-2-ethyl-3-methylbutyl)-7H-pyrrolo[2,3-d]pyrimidin-2-yl)amino)-1H-pyrazol-1-yl)acetate]
< 100 nM: all assays above

CCC(Cn1ccc2cnc(Nc3cnn(CC(=O)O[C@@H](C)CO)c3)nc21)C(C)C (stereo partly drawn) [Compound 105, (S)-1-hydroxypropan-2-yl 2-(4-((7-(2-ethyl-3-methylbutyl)-7H-pyrrolo[2,3-d]pyrimidin-2-yl)amino)-1H-pyrazol-1-yl)acetate]
< 100 nM: all assays above

CCOC(=O)Cn1cc(Nc2ncc3ccn(CC=C(C)C)c3n2)cn1 [Compound 22, ethyl 2-(4-((7-(3-methylbut-2-en-1-yl)-7H-pyrrolo[2,3-d]pyrimidin-2-yl)amino)-1H-pyrazol-1-yl)acetate]
100 to 1000 nM: JAK1
< 100 nM: all other assays above

CCC(C)OC(=O)Cn1cc(Nc2ncc3ccn(CC(CC)C(C)C)c3n2)cn1 (stereo not shown) [Compound 107, sec-butyl 2-(4-((7-(2-ethyl-3-methylbutyl)-7H-pyrrolo[2,3-d]pyrimidin-2-yl)amino)-1H-pyrazol-1-yl)acetate]
< 100 nM: all assays above

CCOC(=O)C(C)n1cc(Nc2ncc3ccn(CC(CC)CC)c3n2)cn1 (stereo not shown) [Compound 28, ethyl 2-(4-((7-(2-ethylbutyl)-7H-pyrrolo[2,3-d]pyrimidin-2-yl)amino)-1H-pyrazol-1-yl)propanoate]
< 100 nM: all assays above

CCOC(=O)Cn1cc(Nc2ncc3ccn(C[C@H](CC)C(C)C)c3n2)cn1 [Compound 133, ethyl (R)-2-(4-((7-(2-ethyl-3-methylbutyl)-7H-pyrrolo[2,3-d]pyrimidin-2-yl)amino)-1H-pyrazol-1-yl)acetate]
< 100 nM: all assays above

CCC(CC)Cn1ccc2cnc(Nc3cnn(CC(=O)O)c3)nc21 [Compound 9, 2-(4-((7-(2-ethylbutyl)-7H-pyrrolo[2,3-d]pyrimidin-2-yl)amino)-1H-pyrazol-1-yl)acetic acid]
< 100 nM: all assays above

CCOC(=O)Cn1cc(Nc2ncc3ccn(CCC#N)c3n2)cn1 [Compound 24, ethyl 2-(4-((7-(2-cyanoethyl)-7H-pyrrolo[2,3-d]pyrimidin-2-yl)amino)-1H-pyrazol-1-yl)acetate]
1000 to 10000 nM: JAK1
100 to 1000 nM: all other assays above

CC(C)OC(=O)Cn1cc(Nc2ncc3ccn(C[C@@H](CCF)C(C)C)c3n2)cn1 [Compound 99, isopropyl (S)-2-(4-((7-(4-fluoro-2-isopropylbutyl)-7H-pyrrolo[2,3-d]pyrimidin-2-yl)amino)-1H-pyrazol-1-yl)acetate]
< 100 nM: all assays above

CC[C@H](Cn1ccc2cnc(Nc3cnn(C4CCOC4=O)c3)nc21)C(C)C (stereo partly drawn) [Compound 82, 3-(4-((7-((S)-2-ethyl-3-methylbutyl)-7H-pyrrolo[2,3-d]pyrimidin-2-yl)amino)-1H-pyrazol-1-yl)dihydrofuran-2(3H)-one]
< 100 nM: all assays above

CC(C)OC(=O)Cn1cc(Nc2ncc3ccn(C[C@@H](CCCl)C(C)C)c3n2)cn1 [Compound 98, isopropyl (S)-2-(4-((7-(4-chloro-2-isopropylbutyl)-7H-pyrrolo[2,3-d]pyrimidin-2-yl)amino)-1H-pyrazol-1-yl)acetate]
< 100 nM: all assays above

CCOC(=O)CCn1cc(Nc2ncc3ccn(C[C@H]4CC[C@H](O)CC4)c3n2)cn1 [Compound 121, ethyl 3-(4-((7-(((1r,4r)-4-hydroxycyclohexyl)methyl)-7H-pyrrolo[2,3-d]pyrimidin-2-yl)amino)-1H-pyrazol-1-yl)propanoate]
< 100 nM: all assays above

CC(C)OC(=O)Cn1cc(Nc2ncc3ccn(C[C@H]4CC[C@H](O)CC4)c3n2)cn1 [Compound 122, isopropyl 2-(4-((7-(((1r,4r)-4-hydroxycyclohexyl)methyl)-7H-pyrrolo[2,3-d]pyrimidin-2-yl)amino)-1H-pyrazol-1-yl)acetate]
< 100 nM: all assays above

CCOC(=O)Cn1cc(Nc2ncc3ccn(CC4CCCCC4C)c3n2)cn1 (stereo not shown) [Compound 42, ethyl 2-(4-((7-((2-methylcyclohexyl)methyl)-7H-pyrrolo[2,3-d]pyrimidin-2-yl)amino)-1H-pyrazol-1-yl)acetate]
< 100 nM: all assays above
